Test results published in patent publication USRE37781E1, “Substituted cyclic carbonyls and derivatives thereof useful as retroviral protease inhibitors” (DuPont Pharmaceuticals Company, priority 1991, dated 2002).
Where two headings read alike, the source gives them in different places.

Assays:
HIV-1 (RF) in MT-2 cells = assay: microbe, parasite or virus in culture; type: cell-based; settings: Table 2d, class symbols
Experimental: DNA Plasmids and in vitro RNA transcripts:
Plasmid pDAB 72 containing both gag and pol sequences of BH10 (bp 113-1816) cloned into PTZ 19R was prepared according to Erickson-Viitanen et al. AIDS Research and Human Retroviruses 1989, 5, 577. The plasmid was linearized with Bam HI prior to the generation of in vitro RNA transcripts using the Riboprobe Gemini system II kit (Promega) with T7 RNA polymerase. Synthesized RNA was purified by treatment with RNase free DNAse (Promega), phenol-chloroform extraction, and ethanol precipitation. RNA transcripts were dissolved in water, and stored at −70° C. The concentration of RNA was determined from the A260.
Biotinylated capture probes were purified by HPLC after synthesis on an Applied Biosystems (Foster City, Calif.) DNA synthesizer by addition of biotin to the 5′ terminal end of the oligonucleotide, using the biotin-phosphoramidite reagent of Cocuzza, Tet. Lett. 1989, 30, 6287. The gag biotinylated capture probe (5-biotin-[…] 3′) was complementary to nucleotides 889-912 of HXB2 and the pol biotinylated capture probe (5′-biotin-[…] 3′) was complementary to nucleotides 2374-2395 of HXB2. Alkaline phosphatase conjugated oligonucleotides used as reporter probes were prepared by Syngene (San Diego, Calif.). The pol reporter probe (5′ […] 3′) was complementary to nucleotides 2403-2425 of HXB2. The gag reporter probe (5′ […] 3′) was complementary to nucleotides 950-973 of HXB2. All nucleotide positions are those of the GenBank Genetic Sequence Data Bank as accessed through the Genetics Computer Group Sequence Analysis Software Package (Devereau Nucleic Acids Research 1984, 12, 387). The reporter probes were prepared as 0.5μM stocks in 2× SSC (0.3M NaCl, 0.03M sodium citrate), 0.05M Tris pH 8.8, 1 mg/mL BSA. The biotinylated capture probes were prepared as 10 μM stocks in water.
Streptavidin coated plates:
Nunc-immunomodule microtiter plate strips were coated by addition of 200 μL of streptavidin (30 ug/mL, Scripps, La Jolla, Calif.) in freshly prepared 10 mM sodium carbonate (pH 9.6). Plates were incubated overnight at 4° C. Streptavidin solution was aspirated from the wells and a blocking buffer composed of phosphate buffered saline (PBS), 20 mg/mL bovine serum albumin (crystalline, nuclease and protease free, Calbiochem) and 100 mg/mL lactose (Sigma) was added to the plates for 3 hrs at room temperature. Blocking buffer was removed from the wells, which were allowed to dry overnight at room temperature and subsequently stored at 4° C. in zip lock bags with desiccant. For the majority of the compound evaluation experiments, streptavidin coated plates were obtained from Du Pont Biotechnology Systems (Boston, Mass.).
MT-2, CEM, and H9 cells were maintained in RPMI 1640 supplemented with 5% fetal calf serum (FCS), 2 mM L-glutamine and 50 μg/mL gentamycin, all from Gibco. Laboratory strains of HIV-1 (RF, MN and IIIB) were propagated in H9 cells in the same medium. Virus stocks were prepared approximately 1 month after acute infection of H9 cells by clarification of the tissue culture medium and storage of aliquots at −70° C. […] Each aliquot of virus stock used for infection was thawed only once. In some cases, infected H9 cells were shifted to Dulbecco's modified Eagle's medium 3-10 days before collection of virus in order to generate virus stocks in medium with low biotin content. Clinical isolates of HIV that had been passaged once in MT-2 cells were used to infect fresh MT-2 cells in RPMI medium. Three days after infection, cells were pelleted, resuspended and culture continued in Dulbecco's modified Eagle's medium as above. Virus stocks of clinical isolates were prepaid 10-15 days after infection when cytopathic effects were apparent in the culture.

[1] = molecular target: single-chain tethered dimer of HIV protease (Human immunodeficiency virus 1, UniProt P04585); assay: biochemical; type: biochemical; design: fused on or other part: A second copy of the same protease unit is joined to the first by a short peptide tether, giving one polypeptide
Experimental: HIV Protease Inhibition Assay—HPLC Method
Active protease was prepared as described therein by extraction with 67% acetic acid, dilution 33-fold with water, dialysis against water and then against a “refolding buffer” consisting of 20 mM MES, 1 mM dithiothreitol and 10% glycerol. Protease was stored as a stock preparation at 10 uM in refolding buffer.
Substrate: Peptide of sequence: aminobenzoyl-Ala-Thr-His-Gln-Val-Tyr-Phe(NO2)-Val-Arg-Lys-Ala containing p-nitrophenylalanine, was prepared by solid phase synthesis as previously described Cheng et al., op.cit. Stock solutions of 2 mM substrate were prepared in DMSO.
Inhibitory compounds were dissolved in sufficient DMSO to make 3 mM stock solutions. All further dilutions were prepared in “assay buffer”: 1M NaCl, 50 mM MES, pH 5.5, 1 mM EDTA, 1 mM DTT, […] glycerol.
Enzyme reaction: In a 2 ml screw-cap centrifuge tube were added 50 ul protease (final concentration 0.25 nM) and 0.1 ml inhibitory compound (final concentration […]). After 15 min preincubation at room temperature, the reaction was started with the addition of 0.05 ml substrate (final concentration 5 uM). Incubation was carried out at 30 C. for 1 hr. The reaction was stopped with 1 ml 0.1M ammonium hydroxide.
HPLC measurement of product formation: The product (aminobenzoyl-Ala-Thr-His-Gln-Val-Tyr) was separated from substrate on a Pharmacia MonoQ anion exchange column. The injection volume was 0.2 ml. The mobile phases were: A (20 mM trisHCl, pH 9.0, 0.02% sodium Azide, 10% acetonitrile), B (20 mM tris HCl, pH 9.0, 0.02% sodium azide, 0.5M ammonium formate, 10% acetonitrile). The mobile phases were pumped at 1 ml/min, with a gradient from 0 to 30% B in 5 min, 100% B for 4 min to wash the column, and a re-equilibration for 4 min. The retention time of the product was 3.6 min. Detection with a Shimadzu model RF535 fluorescence monitor was at 330 nm (excitation) and 430 (emission).

[2] = Human immunodeficiency virus 1, MT2, 48 h, read-out: IC90
[3] = read-out: HPLC K1; Table 2d; class symbols
[4] = Table 2d; class symbols; read-out: HPLC K1

## CC(=O)Oc1cccc(CN2C(=O)N(Cc3cccc(OC(C)=O)c3)C(Cc3ccccc3)C(O)C(O)C2Cc2ccccc2)c1 (stereo not shown) [10F]
HIV-1 (RF) in MT-2 cells; [2]
  IC90: < 10 µg/mL
[1]; [3]
  Ki: 10 to 1000 nM

## NC(=O)c1cccc(CN2C(=O)N(Cc3cccc(C(N)=O)c3)C(Cc3ccccc3)C(O)C(O)C2Cc2ccccc2)c1 (stereo not shown) [10G]
HIV-1 (RF) in MT-2 cells; [2]
  IC90: < 10 µg/mL
[1]; [3]
  Ki: < 10 nM

## NC(=O)COc1cccc(CN2C(=O)N(Cc3cccc(OCC(N)=O)c3)C(Cc3ccccc3)C(O)C(O)C2Cc2ccccc2)c1 (stereo not shown) [10H]
HIV-1 (RF) in MT-2 cells
  IC90: +++ (+++=<10 μg/mL)
[1]; [4]
  Ki: < 10 nM

## O=C1NC(Cc2ccccc2)C(O)C(O)C(Cc2ccccc2)N1Cc1cccc(O)c1 (stereo not shown) [10I]
HIV-1 (RF) in MT-2 cells; [2]
  IC90: < 10 µg/mL
[1]; [3]
  Ki: < 10 nM

## Cc1cccc(CN2C(=O)N(Cc3cccc(O)c3)C(Cc3ccccc3)C(O)C(O)C2Cc2ccccc2)c1 (stereo not shown) [10J]
HIV-1 (RF) in MT-2 cells
  IC90: +++ (+++=<10 μg/mL)
[1]; [4]
  Ki: < 10 nM

## CC(=O)Oc1ccc(CN2C(=O)N(Cc3ccc(OC(C)=O)cc3)C(Cc3ccccc3)C(O)C(O)C2Cc2ccccc2)cc1 (stereo not shown) [10L]
HIV-1 (RF) in MT-2 cells; [2]
  IC90: < 10 µg/mL
[1]; [3]
  Ki: 10 to 1000 nM

## NNC(=O)c1ccc(CN2C(=O)N(Cc3cccc(C(=O)NN)c3)C(Cc3ccccc3)C(O)C(O)C2Cc2ccccc2)cc1 (stereo not shown) [10N]
HIV-1 (RF) in MT-2 cells
  IC90: +++ (+++=<10 μg/mL)
[1]; [4]
  Ki: < 10 nM

## O=C1N(Cc2cccc(O)c2)C(Cc2ccccc2)C(O)C(O)C(Cc2ccccc2)N1Cc1ccccn1 (stereo not shown) [10Q]
HIV-1 (RF) in MT-2 cells; [2]
  IC90: < 10 µg/mL
[1]; [3]
  Ki: 10 to 1000 nM

## O=C1N(Cc2cccc(OCC(O)CO)c2)C(Cc2ccccc2)C(O)C(O)C(Cc2ccccc2)N1Cc1cccc(OCC(O)CO)c1 (stereo not shown) [10T]
HIV-1 (RF) in MT-2 cells
  IC90: +++ (+++=<10 μg/mL)
[1]; [4]
  Ki: < 10 nM

## CCOC(=O)c1cccc(CN2C(=O)N(Cc3cccc(C(=O)OCC)c3)C(Cc3ccccc3)C(O)C(O)C2Cc2ccccc2)c1 (stereo not shown) [10W]
HIV-1 (RF) in MT-2 cells
  IC90: + (+=>100 μg/mL)
[1]; [4]
  Ki: < 10 nM

## O=C1N(Cc2cccc(OCCO)c2)C(Cc2ccccc2)C(O)C(O)C(Cc2ccccc2)N1Cc1cccc(OCCO)c1 (stereo not shown) [10Y]
HIV-1 (RF) in MT-2 cells; [2]
  IC90: < 10 µg/mL
[1]; [3]
  Ki: < 10 nM

## O=C1N(Cc2ccc(CO)cc2)C(Cc2ccccc2)C(O)C(O)C(Cc2ccccc2)N1Cc1ccc(CO)cc1 (stereo not shown) [10Z]
HIV-1 (RF) in MT-2 cells
  IC90: ++ (++=10 to 100 μg/mL)
[1]; [3]
  Ki: > 1000 nM

## CNC(=O)c1cccc(CN2C(=O)N(Cc3cccc(C(=O)NC)c3)C(Cc3ccccc3)C(O)C(O)C2Cc2ccccc2)c1 (stereo not shown) [11H]
HIV-1 (RF) in MT-2 cells; [2]
  IC90: < 10 µg/mL
[1]; [3]
  Ki: < 10 nM

## O=C1N(Cc2cccc(C(O)CO)c2)C(Cc2ccccc2)C(O)C(O)C(Cc2ccccc2)N1Cc1cccc(C(O)CO)c1 (stereo not shown) [11K]
HIV-1 (RF) in MT-2 cells; [2]
  IC90: < 10 µg/mL
[1]; [3]
  Ki: < 10 nM

## O=C1N(Cc2ccc(C(O)CO)cc2)C(Cc2ccccc2)C(O)C(O)C(Cc2ccccc2)N1Cc1ccc(C(O)CO)cc1 (stereo not shown) [11L]
HIV-1 (RF) in MT-2 cells; [2]
  IC90: < 10 µg/mL
[1]; [3]
  Ki: < 10 nM

## O=C1N(Cc2cccc(OCc3ccccc3)c2)C(Cc2ccccc2)C(O)C(O)C(Cc2ccccc2)N1Cc1cccc([N+](=O)[O-])c1 (stereo not shown) [11P]
HIV-1 (RF) in MT-2 cells; [2]
  IC90: < 10 µg/mL
[1]; [3]
  Ki: < 10 nM

## CN(C)C(=O)c1cccc(CN2C(=O)N(Cc3cccc(C(=O)N(C)C)c3)C(Cc3ccccc3)C(O)C(O)C2Cc2ccccc2)c1 (stereo not shown) [11S]
HIV-1 (RF) in MT-2 cells
  IC90: +++ (+++=<10 μg/mL)
[1]; [4]
  Ki: 10 to 1000 nM
